Measured values reported in patent US10722501B2 (BAYER AKTIENGESELLSCHAFT, priority 2016, dated 2020).
pIC50: −log10 of the molar value.

target: T1, recombinant full-length human prolyl endopeptidase (PREP) (Homo sapiens, UniProt P48147); assay: Biochemical human prolyl endopeptidase (PREP) assay with fluorescently labelled substrate; details: substrate Z-Gly-Pro-AMC 50 μM, 32° C., 60 min; some as mean values from multiple independent determinations
T1 construct: To recombinant full-length human prolyl endopeptidase (PREP, R&D-Systems, 4308-SE); purchased R&D-Systems 4308-SE
T1 sequence (P48147 1-710): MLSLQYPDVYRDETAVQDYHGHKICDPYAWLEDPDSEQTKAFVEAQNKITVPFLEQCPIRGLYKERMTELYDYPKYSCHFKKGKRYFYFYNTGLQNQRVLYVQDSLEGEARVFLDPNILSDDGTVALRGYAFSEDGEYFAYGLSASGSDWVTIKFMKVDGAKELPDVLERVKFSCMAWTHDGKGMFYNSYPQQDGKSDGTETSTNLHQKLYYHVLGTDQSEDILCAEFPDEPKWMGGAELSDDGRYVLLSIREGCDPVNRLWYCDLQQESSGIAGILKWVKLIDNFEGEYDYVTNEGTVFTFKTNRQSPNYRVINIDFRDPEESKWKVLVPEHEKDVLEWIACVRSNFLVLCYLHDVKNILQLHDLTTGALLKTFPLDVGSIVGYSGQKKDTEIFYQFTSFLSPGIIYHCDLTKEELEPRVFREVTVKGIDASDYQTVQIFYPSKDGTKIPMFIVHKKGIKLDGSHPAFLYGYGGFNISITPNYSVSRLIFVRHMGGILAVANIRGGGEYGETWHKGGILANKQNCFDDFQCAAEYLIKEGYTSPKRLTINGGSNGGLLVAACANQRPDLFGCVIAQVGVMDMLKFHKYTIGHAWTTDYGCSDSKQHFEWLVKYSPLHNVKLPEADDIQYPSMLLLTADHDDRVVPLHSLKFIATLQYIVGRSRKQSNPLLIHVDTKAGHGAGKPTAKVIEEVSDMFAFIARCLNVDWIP
Outline: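 0.4 nM (final, example) recombinant PREP in pH 7.5 Tris buffer with EDTA, GSH, BSA and Brij-35; compounds at 1 nM to 30 μM. Reaction started with 50 μM Z-Gly-Pro-AMC and followed by fluorescence (ex 360/em 465 nm) at 32° C for 60 min. IC50 interpolated from percent activity based on initial slopes.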

SMILES | pIC50
O=C([C@@H]1CCCc2nn(CCc3ncc(C(F)(F)F)cc3Cl)c(=O)n21)N1CC(F)C1 [Example 518, (5S)-2-{[3-Chloro-5-(trifluoromethyl)pyridin-2-yl]ethyl}-5-[(3-fluoroazetidin-1-yl)carbonyl]-5,6,7,8-tetrahydro[1,2,4]triazolo[4,3-a]pyridin-3(2H)-one] | 7.82
O=C(C1CCCc2nn(Cc3ccc(Cl)cn3)c(=O)n21)N1CCC(F)(F)C1 (racemic) [Example 78, (5RS)-2-[(5-Chloropyridin-2-yl)methyl]-5-[(3,3-difluoropyrrolidin-1-yl)carbonyl]-5,6,7,8-tetrahydro[1,2,4]triazolo[4,3-a]pyridin-3(2H)-one] | 8.22
O=C(C1CCCc2nn(Cc3ccc(F)c(Cl)c3)c(=O)n21)N1CCC(F)(F)C1 (racemic) [Example 86, (5RS)-2-(3-Chloro-4-fluorobenzyl)-5-[(3,3-difluoropyrrolidin-1-yl)carbonyl]-5,6,7,8-tetrahydro[1,2,4]triazolo[4,3-a]pyridin-3(2H)-one] | 9.00
O=C(C1CCCc2nn(Cc3ncc(C(F)(F)F)cc3Cl)c(=O)n21)N1CC(O)C1 (racemic) [Example 403, (5RS)-2-{[3-Chloro-5-(trifluoromethyl)pyridin-2-yl]methyl}-5-[(3-hydroxyazetidin-1-yl)carbonyl]-5,6,7,8-tetrahydro[1,2,4]triazolo[4,3-a]pyridin-3(2H)-one] | 6.72
O=C([C@@H]1CCCc2nn(Cc3ncc(F)cc3F)c(=O)n21)N1CCC(F)(F)C1 [Example 412, (5S)-2-[(3,5-Difluoropyridin-2-yl)methyl]-5-[(3,3-difluoropyrrolidin-1-yl)carbonyl]-5,6,7,8-tetrahydro[1,2,4]triazolo[4,3-a]pyridin-3(2H)-one] | 8.52
Cc1ccc(Cn2nc3n(c2=O)C(C(=O)N2CCCC2)CC(C(F)(F)F)C3)cc1 (single isomer, unassigned) [Example 225, (5RS,7RS)-2-(4-Methylbenzyl)-5-(pyrrolidin-1-ylcarbonyl)-7-(trifluoromethyl)-5,6,7,8-tetrahydro[1,2,4]triazolo[4,3-a]pyridin-3(2H)-one] | 9.64
O=C(C1CCCc2nn(Cc3ccc(Cl)c(Cl)c3)c(=O)n21)N1CCCC1 (racemic) [Example 39, (5RS)-2-(3,4-Dichlorobenzyl)-5-(pyrrolidin-1-ylcarbonyl)-5,6,7,8-tetrahydro[1,2,4]triazolo[4,3-a]pyridin-3(2H)-one] | 9.26
O=C(C1CCCc2nn(Cc3cc(Cl)cc(Cl)c3)c(=O)n21)N1CCCC1 (racemic) [Example 81, (5RS)-2-(3,5-Dichlorobenzyl)-5-(pyrrolidin-1-ylcarbonyl)-5,6,7,8-tetrahydro[1,2,4]triazolo[4,3-a]pyridin-3(2H)-one] | 9.08
O=C(C1CC(C(F)(F)F)Cc2nn(Cc3ccc(Cl)nc3)c(=O)n21)N1CCC(F)(F)C1 (racemic) [Example 230, (5RS,7RS)-2-[(6-Chloropyridin-3-yl)methyl]-5-[(3,3-difluoropyrrolidin-1-yl)carbonyl]-7-(trifluoromethyl)-5,6,7,8-tetrahydro[1,2,4]triazolo[4,3-a]pyridin-3(2H)-one] | 8.64
CC1Cc2nn(Cc3ccc(F)c(Cl)c3)c(=O)n2C(C(=O)N2C[C@@H](F)[C@@H](F)C2)C1 (mixture of isomers) [Example 339, (5RS,7RS)-2-(3-Chloro-4-fluorobenzyl)-5-{[(3R,4S)-3,4-difluoropyrrolidin-1-yl]carbonyl}-7-methyl-5,6,7,8-tetrahydro[1,2,4]triazolo[4,3-a]pyridin-3(2H)-one] | 9.31
O=C(C1CCCc2nn(Cc3ccc(F)c(C(F)(F)F)c3)c(=O)n21)N1CC[C@H](O)C1 (mixture of isomers) [Example 101, (5RS)-2-[4-Fluoro-3-(trifluoromethyl)benzyl]-5-{[(3S)-3-hydroxypyrrolidin-1-yl]carbonyl}-5,6,7,8-tetrahydro[1,2,4]triazolo[4,3-a]pyridin-3(2H)-one] | 8.52
O=C(C1CC(C(F)(F)F)Cc2nn(Cc3ccc(Cl)nc3)c(=O)n21)N1CC(F)C1 (single isomer, unassigned) [Example 239, (5RS,7RS)-2-[(6-Chloropyridin-3-yl)methyl]-5-[(3-fluoroazetidin-1-yl)carbonyl]-7-(trifluoromethyl)-5,6,7,8-tetrahydro[1,2,4]triazolo[4,3-a]pyridin-3(2H)-one] | 7.95
O=C([C@@H]1CCCc2nn(Cc3cccc(Br)c3)c(=O)n21)N1C[C@@H](F)[C@@H](F)C1 [Example 211, (5S)-2-(3-Bromobenzyl)-5-{[(3R,4S)-3,4-difluoropyrrolidin-1-yl]carbonyl}-5,6,7,8-tetrahydro[1,2,4]triazolo[4,3-a]pyridin-3(2H)-one] | 9.82
O=C(C1CC(C(F)(F)F)Cc2nn(Cc3ccc(Cl)nc3)c(=O)n21)N1CC[C@@H](F)C1 (single isomer, unassigned) [Example 246] | 8.89
O=C(C1CCCc2nn(Cc3ccc(Cl)c(C(F)(F)F)c3)c(=O)n21)N1CCCC1 (racemic) [Example 37] | 9.08
O=C(C1CCC(C(F)(F)F)c2nn(Cc3ccc(C(F)(F)F)nc3)c(=O)n21)N1C[C@@H](F)[C@@H](F)C1 (mixture of isomers) [Example 270, (5RS,8RS)-5-{[(3R,4S)-3,4-Difluoropyrrolidin-1-yl]carbonyl}-8-(trifluoromethyl)-2-{[6-(trifluoromethyl)pyridin-3-yl]methyl}-5,6,7,8-tetrahydro[1,2,4]triazolo[4,3-a]pyridin-3(2H)-one] | 8.70
O=C([C@@H]1CCCc2nn(Cc3cc4cccnc4nc3C(F)(F)F)c(=O)n21)N1CC[C@H](F)C1 [Example 419, (5S)-5-{[(3S)-3-Fluoropyrrolidin-1-yl]carbonyl}-2-{[2-(trifluoromethyl)-1,8-naphthyridin-3-yl]methyl}-5,6,7,8-tetrahydro[1,2,4]triazolo[4,3-a]pyridin-3(2H)-one] | 9.06

The remaining compounds from weak to strong by pIC50, led by results:

pIC50 | SMILES
7.03 | O=C([C@@H]1CCCc2nn(Cc3nnc(C(F)(F)F)o3)c(=O)n21)N1CC(F)C1 [Example 542, (5S)-5-[(3-Fluoroazetidin-1-yl)carbonyl]-2-{[5-(trifluoromethyl)-1,3,4-oxadiazol-2-yl]methyl}-5,6,7,8-tetrahydro[1,2,4]triazolo[4,3-a]pyridin-3(2H)-one]
7.62 | O=C(C1CC(C(F)(F)F)Cc2nn(Cc3ccc(Cl)nc3)c(=O)n21)N1CCCC1 (single isomer, unassigned) [Example 227, (5RS,7RS)-2-[(6-Chloropyridin-3-yl)methyl]-5-(pyrrolidin-1-ylcarbonyl)-7-(trifluoromethyl)-5,6,7,8-tetrahydro[1,2,4]triazolo[4,3-a]pyridin-3(2H)-one]
7.74 | O=C([C@@H]1CCCc2nn(Cc3ccc(Cl)nc3)c(=O)n21)N1CC(F)C(F)C1 (mixture of isomers) [Example 550, (5S)-2-[(6-Chloropyridin-3-yl)methyl]-5-{[trans-3,4-difluoropyrrolidin-1-yl]carbonyl}-5,6,7,8-tetrahydro[1,2,4]triazolo[4,3-a]pyridin-3(2H)-one]
8.16 | O=C(C1CC(C(F)(F)F)Cc2nn(Cc3ccc(Cl)nc3)c(=O)n21)N1CC[C@@H](F)C1 (mixture of isomers) [Example 245, (5RS,7RS)-2-[(6-Chloropyridin-3-yl)methyl]-5-{[(3R)-3-fluoropyrrolidin-1-yl]carbonyl}-7-(trifluoromethyl)-5,6,7,8-tetrahydro[1,2,4]triazolo[4,3-a]pyridin-3(2H)-one]
8.31 | O=C(C1CCCc2nn(Cc3ccc(C(F)(F)F)cn3)c(=O)n21)N1CCCC1 (racemic) [Example 23, (5RS)-5-(Pyrrolidin-1-ylcarbonyl)-2-{[5-(trifluoromethyl)pyridin-2-yl]methyl}-5,6,7,8-tetrahydro[1,2,4]triazolo[4,3-a]pyridin-3(2H)-one]
8.88 | O=C(C1CC(C(F)(F)F)Cc2nn(Cc3ncc(C(F)(F)F)cc3Cl)c(=O)n21)N1CC[C@H](F)C1 (mixture of isomers) [Example 562, (5RS,7RS)-2-{[3-Chloro-5-(trifluoromethyl)pyridin-2-yl]methyl}-5-{[(3S)-3-fluoropyrrolidin-1-yl]carbonyl}-7-(trifluoromethyl)-5,6,7,8-tetrahydro[1,2,4]triazolo[4,3-a]pyridin-3(2H)-one]
9.48 | O=C([C@@H]1CCCc2nn(Cc3ccc(F)cc3Cl)c(=O)n21)N1CC[C@H](F)C1 [Example 475, (5S)-2-(2-Chloro-4-fluorobenzyl)-5-{[(3S)-3-fluoropyrrolidin-1-yl]carbonyl}-5,6,7,8-tetrahydro[1,2,4]triazolo[4,3-a]pyridin-3(2H)-one]
9.89 | Cc1ccc(Cn2nc3n(c2=O)[C@H](C(=O)N2CCC[C@H]2C(=O)CO)CCC3)cc1 [Example 190, (5S)-5-{[(2S)-2-Glycoloylpyrrolidin-1-yl]carbonyl}-2-(4-methylbenzyl)-5,6,7,8-tetrahydro[1,2,4]triazolo[4,3-a]pyridin-3(2H)-one]
